Source: PubChem BioAssay (NCI)
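Each compound was tested at five concentrations against cells in 96-well plates for 48 hours. TGI denotes the concentration required for complete inhibition of growth.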

Assays:
Assay in all cases: inhibition of tumour cell growth, NCI panel, 48 h
[1] = system: SK-MEL-2 melanoma
[2] = system: RXF 393 renal
[3] = system: KM20L2 colon
[4] = system: OVCAR-3 ovarian
[5] = system: M19-MEL melanoma
[6] = system: CCRF-CEM leukemia
[7] = system: M14 melanoma
[8] = system: HOP-92 NSCLC
[9] = system: SR leukemia
[10] = system: UO-31 renal
[11] = system: XF 498 CNS
[12] = system: U251 CNS
[13] = system: NCI-H522 lung
[14] = system: RXF-631 renal
[15] = system: KM12 colon
[16] = system: UACC-62 melanoma
[17] = system: SNB-78 CNS
[18] = system: OVCAR-4 ovarian
[19] = system: OVCAR-5 ovarian
[20] = system: MALME-3M melanoma
[21] = system: NCI-H23 lung
[22] = system: K-562 leukemia
[23] = system: SN12C renal
[24] = system: MOLT-4 leukemia
[25] = system: HCC-2998 colon
[26] = system: SW-620 colon
[27] = system: SK-MEL-5 melanoma
[28] = system: COLO 205 colon
[29] = system: IGROV1 ovarian
[30] = system: TK-10 renal
[31] = system: SF-295 CNS
[32] = system: DLD-1 colon
[33] = system: OVCAR-8 ovarian
[34] = system: HT29 colon
[35] = system: SK-OV-3 ovarian
[36] = system: SNB-19 CNS
[37] = system: SK-MEL-28 melanoma
[38] = system: HCT-15 colon
[39] = system: CAKI-1 renal
[40] = system: DMS 273 small cell lung
[41] = system: HCT-116 colon
[42] = system: SF-539 CNS
[43] = system: NCI-H460 lung
[44] = system: RPMI-8226 leukemia
[45] = system: A549 NSCLC
[46] = system: LOX IMVI melanoma
[47] = system: SNB-75 CNS
[48] = system: NCI-H226 lung
[49] = system: HOP-62 NSCLC
[50] = system: UACC-257 melanoma
[51] = system: HOP-18 NSCLC
[52] = system: EKVX NSCLC
[53] = system: ACHN renal
[54] = system: SF-268 CNS
[55] = system: 786-0 renal
[56] = system: A498 renal
[57] = system: HL-60(TB) leukemia
[58] = system: DMS 114 small cell lung
[59] = system: LXFL 529 NSCLC

Measured: TGI

COc1ccccc1/C=C1\N=C(C)OC1=O
not listed: [40] | [41] | [42] | [43] | [44] | [45] | [46] | [47] | [48] | [49] | [50] | [51] | [52] | [53] | [54] | [55] | [56] | [57] | [58] | [59]
> 100 µM: all other assays above

O=c1c2cc(Br)ccc2[nH]c(=S)n1-c1ccccc1
not listed: [2] | [9] | [11] | [13] | [24] | [57] | [58] | [59]
> 100 µM: all other assays above

Cc1ccc(C)c(NC(=O)C(=O)CC(=O)c2cccc3ccccc23)c1
not listed: [11]
> 100 µM: all other assays above

COc1ccccc1NC(=O)CC(=O)n1nc(-c2ccccc2)c(N=Nc2ccccc2[N+](=O)[O-])c1-c1ccccc1
not listed: [38] | [56]
> 100 µM: all other assays above
